US20240279283A1, “CYCLIC PEPTIDE ANTIBIOTICS” (priority 2021, published 2024)
Bridge positions count the residues as written; N and C are the ends. Square brackets hold non-standard residues; d marks the D form. Peptide text beside a SMILES is read from it. Bip = N[C@@H](Cc1ccc(-c2ccccc2)cc1)C(=O)O; 1Nal = N[C@@H](Cc1cccc2ccccc12)C(=O)O; d1Nal = N[C@H](Cc1cccc2ccccc12)C(=O)O; dHis(π-Me) = Cn1cncc1C[C@@H](N)C(=O)O; His(π-Me) = Cn1cncc1C[C@H](N)C(=O)O; NMeY = CN[C@@H](Cc1ccc(O)cc1)C(=O)O; dNMeY = CN[C@H](Cc1ccc(O)cc1)C(=O)O; Gly(N(CH2)3NH2) = NCCCNCC(=O)O; dAbu = CC[C@@H](N)C(=O)O; Abu = CC[C@H](N)C(=O)O

Tests used:
Assay type in all cases: cell-based
Settings in all cases: LB broth, 5×10^5 CFU/ml, 37° C., 18 hours, scored by eye
K. pneumoniae ATCC43816 = assay: Minimum Inhibitory Concentration (MIC) determination, K. pneumoniae ATCC43816; design: unit not given here
Procedure: (§1) MICs were determined by performing two-fold serial dilutions of peptides in LB broth to a final volume of 0.1 ml in round-bottom 96-well assay plates (Corning Life Sciences No 3788). Peptides were initially resuspended in 100% DMSO to 10 mM and subsequently diluted in LB medium to the appropriate concentration. Each well was inoculated with 5×10^5 CFU/ml of the screening stain and incubated at 37° C. without agitation for 18 hours. Plates were scored by eye, and the lowest compound concentration preventing visible growth was determined to be the MIC.

E. coli 25922 IMP = assay: Minimum Inhibitory Concentration (MIC) determination, E. coli 25922 IMP
How it was run: (§2)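 Peptides, diluted two-fold in LB broth from 10 mM DMSO stocks, were inoculated with 5×10^5 CFU/ml of each strain. Incubation was 18 h at 37 °C without shaking. MIC is the lowest concentration preventing visible growth, scored by eye.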

E. coli 25922 = assay: Minimum Inhibitory Concentration (MIC) determination, E. coli 25922; design: unit not given here
Procedure: as §1

E. cloacae ATCC222 = assay: Minimum Inhibitory Concentration (MIC) determination, E. cloacae ATCC222; design: unit not given here
Procedure: as §1

E. coli BW25113 = assay: Minimum Inhibitory Concentration (MIC) determination, E. coli BW25113; design: unit not given here
How it was run: as §2

Compound	MIC K. pneumoniae ATCC43816 Wuxi::MIC (K. pneumoniae ATCC43816)	MIC E. coli 25922 IMP WUXI::MIC (E. coli 25922 IMP)	MIC E. coli 25922 WUXI::MIC (E. coli 25922)	MIC E. cloacae ATCC222 WUXI::MIC (E. cloacae ATCC222)	MIC E. coli BW25113 WUXI::MIC (E. coli BW25113)
CC[C@@H]1NC(=O)[C@H](Cc2ccccc2)NC(=O)CSC[C@@H](C(=O)NCC(N)=O)NC(=O)[C@H](Cc2cncn2C)NC(=O)[C@H](CCCNC(=N)N)NC(=O)[C@H](Cc2c[nH]cn2)NC(=O)[C@H](Cc2ccc(O)cc2)N(C)C(=O)[C@H](CCCNC(=N)N)NC(=O)[C@H](CO)NC(=O)CN(CCCN)C(=O)[C@H](Cc2c[nH]cn2)NC(=O)[C@H](Cc2cccc3ccccc23)NC1=O [Compound 29] ({CH2CO}-F[Abu][1Nal]H[Gly(N(CH2)3NH2)]SR[NMeY]HR[His(π-Me)]CG-NH2; thioether N-12)	3.1	0.001	1.6	0.1	6.3
CC(C)[C@@H]1NC(=O)[C@H](Cc2ccccc2)NC(=O)CSC[C@@H](C(=O)NCC(N)=O)NC(=O)[C@H](Cc2cncn2C)NC(=O)[C@H](CCCNC(=N)N)NC(=O)[C@H](Cc2cnc[nH]2)NC(=O)[C@H](Cc2ccc(O)cc2)N(C)C(=O)[C@H](CCCNC(=N)N)NC(=O)[C@H](CO)NC(=O)CNC(=O)[C@H](Cc2cnc[nH]2)NC(=O)[C@H](Cc2c[nH]c3ccccc23)NC1=O (racemic) [Compound 14]	25	0.0119	25	1.19	37.5
CC[C@@H]1NC(=O)[C@H](Cc2ccccc2)NC(=O)CSC[C@@H](C(=O)NCC(N)=O)NC(=O)[C@H](Cc2cncn2C)NC(=O)[C@H](CCCNC(=N)N)NC(=O)[C@H](Cc2cnc[nH]2)NC(=O)[C@H](Cc2ccc(O)cc2)N(C)C(=O)[C@H](CCCNC(=N)N)NC(=O)[C@H](CO)NC(=O)CNC(=O)[C@H](C)NC(=O)[C@H](Cc2cccc3ccccc23)NC1=O (stereo in doubt) [Compound 35]	100	3.1	100	100	100
CC[C@H]1NC(=O)[C@@H](Cc2ccccc2)NC(=O)CSC[C@H](C(=O)NCC(N)=O)NC(=O)[C@@H](Cc2cncn2C)NC(=O)[C@@H](CCCNC(=N)N)NC(=O)[C@@H](Cc2c[nH]cn2)NC(=O)[C@@H](Cc2ccc(O)cc2)N(C)C(=O)[C@@H](CCCNC(=N)N)NC(=O)[C@@H](CO)NC(=O)[C@@H](CCCNC(=N)N)NC(=O)[C@@H](Cc2c[nH]cn2)NC(=O)[C@@H](Cc2cccc3ccccc23)NC1=O [Compound 28] ({CH2CO}-[dF][dAbu][d1Nal][dH][dR][dS][dR][dNMeY][dH][dR][dHis(π-Me)][dC]G-NH2; thioether N-12)	3.1	0.002	3.1	0.2	6.3
CC[C@@H]1NC(=O)[C@H](Cc2ccccc2)NC(=O)CSC[C@@H](C(=O)NCC(N)=O)NC(=O)[C@H](C)NC(=O)[C@H](CCCNC(=N)N)NC(=O)[C@H](Cc2c[nH]cn2)NC(=O)[C@H](Cc2ccc(O)cc2)N(C)C(=O)[C@H](CCCNC(=N)N)NC(=O)[C@H](CO)NC(=O)CNC(=O)[C@H](Cc2c[nH]cn2)NC(=O)[C@H](Cc2cccc3ccccc23)NC1=O [Compound 39, (3R,6S,9S,12S,15S,18S,21S,27S,30S, 33S,36S)-N-(2-amino-2-oxo-ethyl)-36-benzyl-33-ethyl-9,18-bis(3-guanidinopropyl)-21-(hydroxymethyl)-15-[(4-hydroxyphenyl)methyl]-12,27-bis(1H-imidazol-4-ylmethyl)-6,16-dimethyl-30-(1-naphthylmethyl)-5,8,11,14,17,20,23,26,29,32,35,38-dodecaoxo-1-thia-4,7,10,13,16,19,22,25,28,31,34,37-dodecazacyclononatriacontane-3-carboxamide] ({CH2CO}-F[Abu][1Nal]HGSR[NMeY]HRACG-NH2; thioether N-12)	100	6.3	100	100	100
CC[C@@H]1NC(=O)[C@H](Cc2ccc(O)cc2)NC(=O)CSC[C@@H](C(=O)NCC(N)=O)NC(=O)[C@H](Cc2cncn2C)NC(=O)[C@H](CCCNC(=N)N)NC(=O)[C@H](Cc2c[nH]cn2)NC(=O)[C@H](Cc2ccc(O)cc2)N(C)C(=O)[C@H](CCCNC(=N)N)NC(=O)[C@H](CO)NC(=O)CNC(=O)[C@H](Cc2c[nH]cn2)NC(=O)[C@H](Cc2cccc3ccccc23)NC1=O [Compound 19, (3R,6S,9S,12S,15S,18S,21S,27S,30S, 33S,36S)-N-(2-amino-2-oxo-ethyl)-33-ethyl-9,18-bis(3-guanidinopropyl)-21-(hydroxymethyl)-15,36-bis[(4-hydroxyphenyl)methyl]-12,27-bis(1H-imidazol-4-ylmethyl)-16-methyl-6-[(3-methylimidazol-4-yl)methyl]-30-(1-naphthylmethyl)-5,8,11,14,17,20,23,26,29,32,35,38-dodecaoxo-1-thia-4,7,10,13,16,19,22,25,28,31,34,37-dodecazacyclononatriacontane-3-carboxamide] ({CH2CO}-Y[Abu][1Nal]HGSR[NMeY]HR[His(π-Me)]CG-NH2; thioether N-12)	6.3	0.0039	3.1	0.39	6.3
CC[C@H](C)[C@@H]1NC(=O)[C@H](Cc2ccccc2)NC(=O)CSC[C@@H](C(=O)NCC(N)=O)NC(=O)[C@H](Cc2cncn2C)NC(=O)[C@H](CCCNC(=N)N)NC(=O)[C@H](Cc2cnc[nH]2)NC(=O)[C@H](Cc2ccccc2)N(C)C(=O)[C@H](CCCNC(=N)N)NC(=O)[C@H](CO)NC(=O)CNC(=O)[C@H](Cc2cnc[nH]2)NC(=O)[C@H](Cc2c[nH]c3ccccc23)NC1=O (racemic) [Compound 15]	75	0.016	50	3.1	100
CC[C@@H]1NC(=O)[C@H](Cc2ccccc2)NC(=O)CSC[C@@H](C(=O)NCC(N)=O)NC(=O)[C@H](Cc2cncn2C)NC(=O)[C@H](CCCNC(=N)N)NC(=O)[C@H](Cc2c[nH]cn2)NC(=O)[C@H](Cc2ccc(O)cc2)N(C)C(=O)[C@H](CCCNC(=N)N)NC(=O)[C@H](CO)NC(=O)CNC(=O)[C@H](Cc2c[nH]cn2)NC(=O)[C@H](Cc2ccc(-c3ccccc3)cc2)NC1=O [Compound 24] ({CH2CO}-F[Abu][Bip]HGSR[NMeY]HR[His(π-Me)]CG-NH2; thioether N-12)	–	0.016	13	–	–
CC[C@H](C)[C@@H]1NC(=O)[C@H]([C@@H](C)O)NC(=O)[C@H](Cc2cncn2C)NC(=O)[C@H](Cc2ccccc2)NC(=O)CSC[C@@H](C(=O)NCC(N)=O)NC(=O)[C@H](Cc2ccc(O)cc2)NC(=O)[C@H](Cc2ccc(Cl)cc2)NC(=O)[C@H](Cc2ccc(O)cc2)NC(=O)[C@H](CCCNC(=N)N)NC(=O)[C@H](Cc2ccccc2)NC(=O)C(C)(C)NC(=O)[C@H](CO)NC(=O)[C@H](CCCCN)NC(=O)[C@H](CCCNC(=N)N)NC1=O (mixture of isomers) [Compound 60]	–	1	16	–	16
CC[C@H](C)[C@@H]1NC(=O)[C@H]([C@@H](C)O)NC(=O)[C@H](Cc2cncn2C)NC(=O)[C@H](Cc2ccccc2)NC(=O)CSC[C@@H](C(=O)NCC(N)=O)NC(=O)[C@H](Cc2ccc(O)cc2)NC(=O)[C@H](Cc2c[nH]c3ccccc23)NC(=O)[C@H](Cc2ccc(O)cc2)NC(=O)[C@H](CCCCN)NC(=O)[C@H](Cc2ccccc2)NC(=O)C(C)(C)NC(=O)[C@H](CO)NC(=O)[C@H](CCCCN)NC(=O)[C@H](CCCNC(=N)N)NC1=O (racemic) [Compound 61]	–	1	16	–	16
CC[C@H](C)[C@@H]1NC(=O)[C@H]([C@@H](C)O)NC(=O)[C@H](Cc2cncn2C)NC(=O)[C@H](Cc2ccccc2)NC(=O)CSC[C@@H](C(=O)NCC(N)=O)NC(=O)[C@H](Cc2ccc(O)cc2)NC(=O)[C@H](Cc2c[nH]c3ccccc23)NC(=O)[C@H](Cc2ccc(O)cc2)NC(=O)[C@H](CCCNC(=N)N)NC(=O)[C@H](Cc2ccccc2)NC(=O)C(C)(C)NC(=O)[C@H](CO)NC(=O)[C@H](CCCCN)NC(=O)[C@H](CCCNC(=N)N)NC1=O (racemic) [Compound 59]	–	1	8	–	16
